The results in this text go back to US10300060B2, “Trk-inhibiting compound” (ONO PHARMACEUTICAL CO., LTD., priority 2013, dated 2019).

Assay [1] concerns sodium monoiodoacetate-induced model rats. Briefly: Analgesic effect on sodium monoiodoacetate-induced model rats. The format is in vivo, rat. Particulars: MIA-induced model rats.
The target of assay [2] is KDR (Homo sapiens (Human), UniProt P35968). Briefly: Enzyme-inhibiting activity test of kinases other than Trk (selectivity experiment): KDR. It counts as biochemical. Particulars: concentration of 3 μM; read-out: Inhibition rate (%) KDR. The protocol: (§1) A test substance (the present compound) was dissolved in dimethylsulfoxide to prepare a 100-fold concentration of the test concentration, 3 μM. The solution was further diluted to 25-fold with an assay buffer (20 mM HEPES, 0.01% Triton X-100, 2 mM DTT, pH 7.5) to obtain a test substance solution. In a similar manner a positive control substance solution was prepared with a positive control substance.
(§2) A 4-times concentration solution (5 μL) of the test substance prepared with the assay buffer, 5 μL of a 4-times concentration solution of substrate/ATP/metal (Mg) and 10 μL of a 2-times concentration solution of kinase were mixed in a well of a polypropylene 384-well plate and allowed to react at room temperature for 1 hour. The reaction was terminated by adding 60 μL of a Termination Buffer (QuickScout Screening Assist MSA; Carna Biosciences). The substrate peptide and the phosphorylated peptide in the reaction solution were separated and quantified. The kinase reaction was assessed from the product ratio (P/(P+S)) calculated from the height (S) of the peak of the substrate peptide and the height (P) of the peak of the phosphorylated peptide. Other kinases used in the kinase selectivity experiments were, for example, b-Raf and KDR. The following Table 3 indicates substrates, substrate concentrations, ATP concentrations and positive control substances used in respective kinase enzyme inhibition activity tests.

The target of assay [3] is b-Raf (Homo sapiens (Human), UniProt P15056). Briefly: Enzyme-inhibiting activity test of kinases other than Trk (selectivity experiment): b-Raf. The format is biochemical. Particulars: concentration of 3 μM; read-out: Inhibition rate (%) b-Raf. The protocol: as §1, §2
[4] abbreviates: test substance orally twice a day day 14 to 23, day 24 3 hours before measurement, right hind limb weight load ratio, experiment with morphine as positive control.
The mark [5] stands for this setting: test substance orally twice a day day 14 to 23, day 24 3 hours before measurement, right hind limb weight load ratio, experiment with tramadol as positive control.

Chain of KDR (P35968 20-1356, species assumed): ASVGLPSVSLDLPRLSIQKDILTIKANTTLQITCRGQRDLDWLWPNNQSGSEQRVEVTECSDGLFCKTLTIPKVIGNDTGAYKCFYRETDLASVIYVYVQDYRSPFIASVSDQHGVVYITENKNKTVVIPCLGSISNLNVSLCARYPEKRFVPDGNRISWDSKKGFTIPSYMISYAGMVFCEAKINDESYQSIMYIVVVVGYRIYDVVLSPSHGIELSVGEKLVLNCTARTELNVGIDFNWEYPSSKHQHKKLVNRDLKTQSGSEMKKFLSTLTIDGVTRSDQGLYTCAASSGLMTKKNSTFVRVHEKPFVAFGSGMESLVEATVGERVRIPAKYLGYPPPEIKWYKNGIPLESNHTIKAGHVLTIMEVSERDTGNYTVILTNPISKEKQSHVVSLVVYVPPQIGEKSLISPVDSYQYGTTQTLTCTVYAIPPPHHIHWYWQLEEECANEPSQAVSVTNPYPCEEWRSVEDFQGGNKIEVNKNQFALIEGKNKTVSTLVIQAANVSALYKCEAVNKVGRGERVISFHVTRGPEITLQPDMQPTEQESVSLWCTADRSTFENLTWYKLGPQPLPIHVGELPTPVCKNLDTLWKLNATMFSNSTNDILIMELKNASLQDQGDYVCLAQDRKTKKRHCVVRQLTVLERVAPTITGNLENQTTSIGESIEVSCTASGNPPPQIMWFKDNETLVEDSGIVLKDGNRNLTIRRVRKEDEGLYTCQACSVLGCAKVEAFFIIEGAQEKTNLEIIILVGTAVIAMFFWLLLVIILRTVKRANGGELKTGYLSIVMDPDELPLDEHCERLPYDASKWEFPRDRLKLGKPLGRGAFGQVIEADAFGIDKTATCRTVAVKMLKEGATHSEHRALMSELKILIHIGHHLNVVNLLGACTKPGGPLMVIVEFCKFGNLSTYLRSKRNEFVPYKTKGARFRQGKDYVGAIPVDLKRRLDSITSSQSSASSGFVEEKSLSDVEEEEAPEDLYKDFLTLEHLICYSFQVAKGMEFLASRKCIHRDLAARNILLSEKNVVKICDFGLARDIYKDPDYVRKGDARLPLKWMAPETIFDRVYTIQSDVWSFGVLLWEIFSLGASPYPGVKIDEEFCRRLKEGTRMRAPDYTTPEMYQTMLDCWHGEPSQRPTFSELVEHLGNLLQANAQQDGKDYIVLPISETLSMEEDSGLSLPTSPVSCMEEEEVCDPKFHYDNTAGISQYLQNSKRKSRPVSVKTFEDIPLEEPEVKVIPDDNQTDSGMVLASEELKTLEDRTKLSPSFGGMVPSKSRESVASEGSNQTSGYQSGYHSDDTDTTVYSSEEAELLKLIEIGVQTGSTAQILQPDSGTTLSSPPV
Chain of b-Raf (P15056 whole entry, species assumed): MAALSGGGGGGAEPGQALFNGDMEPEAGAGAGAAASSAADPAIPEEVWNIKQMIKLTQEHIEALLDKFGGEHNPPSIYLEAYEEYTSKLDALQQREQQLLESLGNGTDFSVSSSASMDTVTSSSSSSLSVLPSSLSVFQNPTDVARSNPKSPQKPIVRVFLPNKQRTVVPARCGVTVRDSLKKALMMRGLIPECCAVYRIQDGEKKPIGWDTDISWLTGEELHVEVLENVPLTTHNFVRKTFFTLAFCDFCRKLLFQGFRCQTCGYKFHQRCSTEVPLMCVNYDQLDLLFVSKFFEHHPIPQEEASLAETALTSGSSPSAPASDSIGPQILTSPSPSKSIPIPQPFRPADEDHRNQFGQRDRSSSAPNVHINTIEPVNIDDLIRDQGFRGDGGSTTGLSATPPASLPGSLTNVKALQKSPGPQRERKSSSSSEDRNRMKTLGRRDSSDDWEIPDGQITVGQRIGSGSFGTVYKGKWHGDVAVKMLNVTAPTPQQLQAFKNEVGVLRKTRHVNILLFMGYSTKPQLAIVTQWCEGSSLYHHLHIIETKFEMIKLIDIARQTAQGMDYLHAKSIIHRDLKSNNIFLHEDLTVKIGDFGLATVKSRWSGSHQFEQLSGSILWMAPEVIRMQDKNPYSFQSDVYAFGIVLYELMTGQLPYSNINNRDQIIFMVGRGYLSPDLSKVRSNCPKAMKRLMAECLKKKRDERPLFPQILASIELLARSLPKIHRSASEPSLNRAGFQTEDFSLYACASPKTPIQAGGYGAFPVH

Take `CS(=O)(=O)c1ccc(C(F)(F)F)cc1NC(=O)Nc1cnc(Oc2ccc(-c3cc(C(F)(F)F)cnc3N)cc2)nc1` [Example 15-98, 1-(2-{4-[2-amino-5-(trifluoromethyl)-3-pyridinyl]phenoxyl}-5-pyrimidinyl)-3-[2-(methylsulfonyl)-5-(trifluoromethyl)phenyl]urea]: in assay [1] (setting [4]), the “Percent improvement (%)” value is recorded as 57%. The inhibition (as a rule, how much of the control response was suppressed) at 3 µM turned out to be 8% in assay [2] and 23% in assay [3].
Take `O=C(Nc1cnc(Oc2ccc(-c3cnn4ccc(N5CCC5)nc34)cc2)nc1)Nc1cc(C(F)(F)F)ccc1-c1cccnc1` [Example 21-1, 1-(2-(4-(5-(azetidin-1-yl)pyrazolo[1,5-a]pyrimidin-3-yl)phenoxy)pyrimidin-5-yl)-3-(2-(pyridin-3-yl)-5-(trifluoromethyl)phenyl)urea]: the results for the inhibition at 3 µM in assay [2] and in assay [3] were 1.5% and 36%, respectively.
Take `Cc1cccc(-c2ccc(C(F)(F)F)cc2NC(=O)Nc2cnc(Oc3ccc(-c4cnn5ccc(N(C)C)nc45)cc3)nc2)c1` [Example 21-73, 1-(2-{4-[5-(dimethylamino)pyrazolo[1,5-a]pyrimidin-3-yl]phenoxyl}-5-pyrimidinyl)-3-[3′-methyl-4-(trifluoromethyl)-2-biphenylyl]urea]: the “Percent improvement (%)” value in assay [1] (setting [4]) worked out at 62%. Also, the inhibition at 3 µM in assay [2] amounted to 0%; in assay [3] it was 21%.
Take `CS(=O)(=O)c1ccc(C(F)(F)F)cc1NC(=O)Nc1cnc(Oc2ccc(-c3cc(F)cnc3N)cc2)nc1` [Example 15-96, 1-{2-[4-(2-amino-5-fluoro-3-pyridinyl)phenoxy]-5-pyrimidinyl}-3-[2-(methylsulfonyl)-5-(trifluoromethyl)phenyl]urea]: the inhibition at 3 µM amounted to 2% in assay [2] and 22% in assay [3].
Regarding `Nc1ncc(Cl)cc1-c1ccc(Oc2ncc(NC(=O)Nc3cc(C(F)(F)F)ccc3-n3cc(Cl)cn3)cn2)cc1` [Example 15-63, 1-{2-[4-(2-amino-5-chloro-3-pyridinyl)phenoxy]-5-pyrimidinyl}-3-[2-(4-chloro-1H-pyrazol-1-yl)-5-(trifluoromethyl)phenyl]urea], the “Percent improvement (%)” value in assay [1] (setting [4]) was 53%. Also, the inhibition at 3 µM came out at 0% in assay [2] and 43% in assay [3].
As to `CN(C)c1ccn2ncc(-c3ccc(Oc4ncc(NC(=O)Nc5cc(C(F)(F)F)ccc5-c5ccnn5C)cn4)cc3)c2n1` [Example 21-51, 1-(2-{4-[5-(dimethylamino)pyrazolo[1,5-a]pyrimidin-3-yl]phenoxyl}-5-pyrimidinyl)-3-[2-(1-methyl-1H-pyrazol-5-yl)-5-(trifluoromethyl)phenyl]urea], the “Percent improvement (%)” value in assay [1] (setting [4]) was determined as 68%. Besides, the figures for the inhibition at 3 µM in assay [2] and in assay [3] were 9% and 49%, respectively.
Consider `Cn1nccc1-c1ccc(C(F)(F)F)cc1NC(=O)Nc1cnc(Oc2ccc(-c3cnn4ccc(N5CCC5)nc34)cc2)nc1` [Example 21-2, 1-(2-(4-(5-(azetidin-1-yl)pyrazolo[1,5-a]pyrimidin-3-yl)phenoxy)pyrimidin-5-yl)-3-(2-(1-methyl-1H-pyrazol-5-yl)-5-(trifluoromethyl)phenyl)urea], for which the inhibition at 3 µM in assay [2] was 1%; in assay [3], 30%.
For the compound `Nc1ncc(C(F)(F)F)cc1-c1ccc(Oc2ncc(NC(=O)Nc3cc(C(F)(F)F)ccc3-n3cc(Cl)cn3)cn2)cc1` [Example 15-87, 1-(2-{4-[2-amino-5-(trifluoromethyl)-3-pyridinyl]phenoxyl}-5-pyrimidinyl)-3-[2-(4-chloro-1H-pyrazol-1-yl)-5-(trifluoromethyl)phenyl]urea], the “Percent improvement (%)” value in assay [1] (setting [4]) was 57%. In addition, the values for the inhibition at 3 µM in assay [2] and in assay [3] were 0% and 34%, respectively.
Turning to `Nc1ncc(F)cc1-c1ccc(Oc2ncc(NC(=O)Nc3cc(C(F)(F)F)ccc3-c3ccccc3)cn2)cc1` [Example 15-58, 1-{2-[4-(2-amino-5-fluoro-3-pyridinyl)phenoxy]-5-pyrimidinyl}-3-[4-(trifluoromethyl)-2-biphenylyl]urea], the values for the inhibition at 3 µM in assay [2] and in assay [3] were 0% and 30%, respectively.
On to `CCNc1ccn2ncc(-c3ccc(Oc4ncc(NC(=O)Nc5cc(C(F)(F)F)ccc5-c5cccc(C)c5)cn4)cc3)c2n1` [Example 21-67, 1-(2-{4-[5-(ethylamino)pyrazolo[1,5-a]pyrimidin-3-yl]phenoxyl}-5-pyrimidinyl)-3-[3′-methyl-4-(trifluoromethyl)-2-biphenylyl]urea], for which the inhibition at 3 µM was found to be 0% in assay [2] and 19% in assay [3].
Taken in the same sequence, the figures for `Nc1ncc(Cl)cc1-c1ccc(Oc2ncc(NC(=O)Nc3ccc(C(F)(F)F)cc3-n3cccn3)cn2)cc1` [Example 15-4, 1-(2-(1H-pyrazol-1-yl)-4-(trifluoromethyl)phenyl)-3-(2-(4-(2-amino-5-chloropyridin-3-yl)phenoxy)pyrimidin-5-yl)urea] were 0% and 0%.
Turning to `COc1cccc(C2(O)CCCCC2CN(C)C)c1` (centres unmarked) [Tramadol, tramadol, reference compound], in assay [1] (10 mg/kg subcutaneously 1 hour before measurement on day 24), the “Percent improvement (%)” value turned out to be 43%.
Regarding `Cc1ccccc1-c1ccc(C(F)(F)F)cc1NC(=O)Nc1cnc(Oc2ccc(-c3cnn4ccc(N(C)C)nc34)cc2)nc1` [Example 21-75, 1-(2-{4-[5-(dimethylamino)pyrazolo[1,5-a]pyrimidin-3-yl]phenoxyl}-5-pyrimidinyl)-3-[2′-methyl-4-(trifluoromethyl)-2-biphenylyl]urea], the inhibition at 3 µM in assay [2] is 0%; in assay [3] it was 41%.
Taken in the same sequence, the figures for `Cc1ccn2ncc(-c3ccc(Oc4ncc(NC(=O)Nc5cc(C(F)(F)F)ccc5-c5cccnc5)cn4)cc3)c2n1` [Example 21-65, 1-{2-[4-(5-methylpyrazolo[1,5-a]pyrimidin-3-yl)phenoxy]-5-pyrimidinyl}-3-[2-(3-pyridinyl)-5-(trifluoromethyl)phenyl]urea] were 19% and 58%.
Regarding `Nc1ncc(Cl)cc1-c1ccc(Oc2ncc(NC(=O)Nc3cc(C(F)(F)F)ccc3-n3ccc(C(F)(F)F)n3)cn2)cc1` [Example 8-2, 1-(2-(4-(2-amino-5-chloropyridin-3-yl)phenoxy)pyrimidin-5-yl)-3-(5-(trifluoromethyl)-2-(3-(trifluoromethyl)-1H-pyrazol-1-yl)phenyl)urea], the inhibition at 3 µM was 0% in assay [2] and 21% in assay [3].
Take `O=C(Nc1cnc(Oc2ccc(-c3cnn4cccnc34)cc2)nc1)Nc1cc(C(F)(F)F)ccc1-c1cccnc1` [Example 21-13, 1-(2-(4-(pyrazolo[1,5-a]pyrimidin-3-yl)phenoxy)pyrimidin-5-yl)-3-(2-(pyridin-3-yl)-5-(trifluoromethyl)phenyl)urea]: the “Percent improvement (%)” value in assay [1] (setting [5]) stood at 66%.
Take `Nc1ncc(Cl)cc1-c1ccc(Oc2ncc(NC(=O)Nc3cc(Cl)ccc3-n3ccc(C(F)(F)F)n3)cn2)cc1` [Example 15-71, 1-{2-[4-(2-amino-5-chloro-3-pyridinyl)phenoxy]-5-pyrimidinyl}-3-{5-chloro-2-[3-(trifluoromethyl)-1H-pyrazol-1-yl]phenyl}urea]: the inhibition at 3 µM stood at 0% in assay [2] and 40% in assay [3].
Take `COc1ccn2ncc(-c3ccc(Oc4ncc(NC(=O)Nc5cc(C(F)(F)F)ccc5-c5cccnc5)cn4)cc3)c2n1` [Example 21-9, 1-(2-(4-(5-methoxypyrazolo[1,5-a]pyrimidin-3-yl)phenoxy)pyrimidin-5-yl)-3-(2-(pyridin-3-yl)-5-(trifluoromethyl)phenyl)urea]: the “Percent improvement (%)” value in assay [1] (setting [5]) is 64%.
Consider `CN(C)S(=O)(=O)c1ccc(C(F)(F)F)cc1NC(=O)Nc1cnc(Oc2ccc(-c3cc(C(F)(F)F)cnc3N)cc2)nc1` [Example 15-105, 2-{[(2-{4-[2-amino-5-(trifluoromethyl)-3-pyridinyl]phenoxyl}-5-pyrimidinyl)carbamoyl]amino}-N,N-dimethyl-4-(trifluoromethyl)benzenesulfonamide], for which the figures for the inhibition at 3 µM in assay [2] and in assay [3] were 0% and 26%, respectively.
As for `Cn1nccc1-c1ccc(C(F)(F)F)cc1NC(=O)Nc1cnc(Oc2ccc(-c3cc(Cl)cnc3N)cc2)nc1` [Example 13-1, 1-(2-(4-(2-amino-5-chloropyridin-3-yl)phenoxy)pyrimidin-5-yl)-3-(2-(1-methyl-1H-pyrazol-5-yl)-5-(trifluoromethyl)phenyl)urea], the inhibition at 3 µM worked out at 7.5% in assay [2] and 33% in assay [3].
For the compound `CCOc1ccc2ncc(-c3ccc(Oc4ncc(NC(=O)Nc5cc(C(F)(F)F)ccc5-c5cccnc5)cn4)cc3)n2n1` [Example 22-34, 1-{2-[4-(6-ethoxyimidazo[1,2-b]pyridazin-3-yl)phenoxy]-5-pyrimidinyl}-3-[2-(3-pyridinyl)-5-(trifluoromethyl)phenyl]urea], the values for the inhibition at 3 µM in assay [2] and in assay [3] were 19% and 56%, respectively.
